# Experimental data published in patent publication US7638503B2, “Small molecule stimulators of neuronal growth” (California Institute of Technology, priority 2004, dated 2009).
# Tests used:
# [1] = tested on: primary hippocampal neurons; assay: Hippocampal neuronal growth: neurite outgrowth of cultured primary hippocampal neurons, anti-tau immunostaining, confocal microscopy; assay type: cell-based, Sprague-Dawley rats; conditions: 48 h
# Procedure: In certain embodiments, the activity of the compounds provided herein to modulate neuronal growth, can be tested using cultured primary hippocampal neurons. Primary hippocampal neurons are cultured on poly-DL-ornithine-coated coverslips with or without each compound. After 48 h, the neurons are fixed, immunostained with anti-tau antibodies, and examined by confocal fluorescence microscopy. The effect of sulfated tetrasaccharide CS-E on neuronal morphology and growth is illustrated in FIGS. 1A-B. The number of neurites emanating from the cell body was enhanced, and the growth of the major extension was stimulated by 39.3±3.6% relative to the poly-DL-omithine control.
# Hippocampal Neuronal Cultures. Hippocampal neuronal cultures were prepared using a modified version of the Goslin and Banker protocol (Goslin, K.; Banker, G. In Culturing Nerve Cells; Banker, G.; Goslin, K.; Eds.; MIT Press: Cambridge, Mass., 1991; pp 251-281). Embryos at the E18 stage were obtained from timed-pregnant Sprague-Dawley rats, and the hippocampus from each embryo was dissected. All the hippocampi from one preparation were transferred to a 15 mL conical tube containing 4.5 mL of ice-cold Calcium and Magnesium Free-Hank's Balanced Salt Solution (CMF-HBSS) (GIBCO). Trypsin (2.5%, no EDTA; GIBCO) was added to 5 mL, and the tissue was digested for 15 min at 37° C. The trypsin solution was removed and the tissue rinsed with 5 mL of CMF-HBSS three times. The tissue was then dissociated in 1 mL of CMF-HBSS by passing through a P1000 pipet tip twenty times. The cells were counted with a hemacytometer and plated on glass coverslips at 80 cells/mm2 and cultivated in minimal Eagle's Medium (MEM) (GIBCO) supplemented with the N2 mixture (GIBCO) and 0.1 mM pyruvate. The cultures were maintained in 5% CO2 at 37° C. Glass coverslips were coated as described by Clement et. al. (Clement, A.M.; Nadanaka, S.; Masayama, K.; Mandl, C.; Sugahara, K.; Faissner, A. J. Biol. Chem. 1998, 273, 28444-28453) Briefly, coverslips were precoated with 0.015 mg/mL poly-DL-ornithine (SIGMA) for 1 h at 37° C./5% CO2, washed three times with double distilled H2O, and coated with 0.5 mg/mL of compounds 1-3 in PBS overnight at 37° C./5% CO2. The coverslips were then washed three times with PBS and flooded with MEM+N2 media.
# Immunocytochemistry of Hippocampal Neuronal Cultures. After 48 h in culture, hippocampal neurons on coverslips were used for immunostaining. […]
# Morphometric Analysis. For quantitative analysis, 50 cells were analyzed per coverslip. Only cells with neurites longer than one cell body diameter were counted. The length of the longest neurite from stained cells was measured using N1H Image 1.52 software. […]
# [2] = tested on: dopaminergic neurons; assay: Outgrowth of cultured dopaminergic neurons; assay type: cell-based
# Source text: (§1) Effect of disaccharide CS-E, tetrasaccharides CS-E, and unsulfated tetrasaccharide on the growth of dopaminergic neurons as well as dorsal root ganglion (DRG) neurons from the spinal cord is illustrated in FIGS. 2A-B and 4A-B, respectively. In certain embodiments, the CS-E tetrasaccharide promoted the outgrowth of cultured dopaminergic and DRG neurons by 30-40% relative to the untreated controls. FIGS. 5 and 7 illustrate binding of tetrasaccharides CS-E, CS-C and disaccharide CS-E to tumor necrosis factor-α and midkine, respectively.
# [3] = tested on: dorsal root ganglion (DRG) neurons; assay: Outgrowth of cultured dorsal root ganglion (DRG) neurons from the spinal cord; assay type: cell-based
# Source text: as §1
# [4] = primary hippocampal neurons on poly-DL-ornithine-coated coverslips with compound
molecule,measurement,setting,value
"Allyl (sodium β-D-glucopyranosyluronate)-(1→3)-4,6-di-O-sodium sulfonato-2-deoxy-2-acetamido-β-D-galactopyranoside [sulfated disaccharide]",effect on neuronal outgrowth,[1]; [4],no significant effect
"C=CCO[C@@H]1O[C@H](CO)[C@H](O)[C@H](O[C@@H]2O[C@H](C(=O)[O-])[C@@H](O[C@@H]3O[C@H](CO)[C@H](O)[C@H](O[C@@H]4O[C@H](C(=O)[O-])[C@@H](O)[C@H](O)[C@H]4O)[C@H]3NC(C)=O)[C@H](O)[C@H]2O)[C@H]1NC(C)=O.[Na+].[Na+] [unsulfated tetrasaccharide, Allyl (sodium β-D-glucopyranosyluronate)-(1→3)-(2-deoxy-2-acetamido-β-D-galactopyranosyl)-(1→4)-(sodium β-D-glucopyranosyluronate)-(1→3)-2-deoxy-2-acetamido-β-D-galactopyranoside]",effect on neuronal outgrowth,[1]; [4],no significant effect
"C=CCO[C@@H]1O[C@H](COS(=O)(=O)[O-])[C@H](OS(=O)(=O)[O-])[C@H](O[C@@H]2O[C@H](C(=O)[O-])[C@@H](O[C@@H]3O[C@H](COS(=O)(=O)[O-])[C@H](OS(=O)(=O)[O-])[C@H](O[C@@H]4O[C@H](C(=O)[O-])[C@@H](O)[C@H](O)[C@H]4O)[C@H]3NC(C)=O)[C@H](O)[C@H]2O)[C@H]1NC(C)=O.[Na+].[Na+].[Na+].[Na+].[Na+].[Na+] [sulfated tetrasaccharide CS-E, Allyl (sodium β-D-glucopyranosyluronate)-(1→3)-(4,6-di-O-sodiumsulfonato-2-deoxy-2-acetamido-β-D-galactopyranosyl)-(1→4)-(sodium β-D-glucopyranosyluronate)-(1→3)-4,6-di-O-sodium sulfonato-2-deoxy-2-acetamido-β-D-galactopyranoside]",growth of the major extension stimulated relative to the poly-DL-ornithine control,[1]; primary hippocampal neurons on poly-DL-ornithine-coated coverslips with compound (0.5 mg/mL coating),39.3±3.6%
same,number of neurites emanating from the cell body,[1]; [4],enhanced
same,outgrowth promoted relative to the untreated controls,[2],30-40%
same,outgrowth promoted relative to the untreated controls,[3],30-40%
